We go through 27 molecules from US7435837B2, “Dihydrobenzofuranyl alkanamine derivatives and methods for using same” (Wyeth, priority 2003, dated 2008).

The target of assay [1] is T1, human 5-hydroxytryptamine-2C (h5-HT2C) receptor (Homo sapiens, UniProt P28335).
T1 construct: expressed in transfected cells; host or cells: CHO (Chinese Hamster Ovary) cells; membranes
T1 sequence (P28335 33-458): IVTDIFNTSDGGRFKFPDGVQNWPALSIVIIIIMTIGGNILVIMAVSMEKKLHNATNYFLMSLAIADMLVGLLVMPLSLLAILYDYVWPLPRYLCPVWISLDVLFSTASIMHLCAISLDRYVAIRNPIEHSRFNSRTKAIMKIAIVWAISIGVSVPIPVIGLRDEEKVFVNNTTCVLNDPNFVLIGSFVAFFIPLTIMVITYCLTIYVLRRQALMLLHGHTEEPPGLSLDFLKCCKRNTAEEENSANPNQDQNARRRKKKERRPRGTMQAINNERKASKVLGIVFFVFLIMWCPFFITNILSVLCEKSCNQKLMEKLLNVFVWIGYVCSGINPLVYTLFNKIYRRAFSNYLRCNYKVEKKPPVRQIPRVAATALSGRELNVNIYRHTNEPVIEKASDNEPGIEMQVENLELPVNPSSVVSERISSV
The assay can be described thus: [125I]DOI binding to membranes of CHO cells expressing the human 5-HT2C receptor. Conditions: [125I]DOI radioligand, CHO cell membranes, room temperature 60 min; read-out: 5-HT2C Affinity Ki.

Assay [2] deals with T2, human 5-HT2C receptor (Homo sapiens, UniProt P28335).
T2 sequence (P28335 33-458): T1 sequence (P28335 33-458)
Put plainly: 5-HT2C receptor-stimulated calcium mobilization (FLIPR) in CHO cells.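 On all read-outs here: Fluo-3-AM fluorescence read on FLIPR every 1 s, agonist added after 10 baseline reads, response taken as peak minus lowest raw fluorescence count.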 Conditions: for EC50: calcium mobilization, CHO cells stably expressing human 5-HT2C, read-out: 5-HT2C Function EC50; for 5-HT2C Function Emax (%) / Emax: percentage of the response observed with a maximally effective concentration of 5-HT; for Emax: CHO, read-out: 5-HT2C Function Emax (%). It is filed as cell-based. A general note: Calcium assays in cells follow changes in intracellular calcium, usually with a dye or a luminescent sensor.

Usually Ki stands for the equilibrium dissociation constant of an inhibitor or competing ligand from its target. By EC50 is commonly meant the concentration that produces a half-maximal response. Turning to `NCC1Cc2cc(F)cc(-c3ccccc3Cl)c2O1` (single isomer, unassigned; (+)) [Example 101, (+)-1-[7-(2-chlorophenyl)-5-fluoro-2,3-dihydro-1-benzofuran-2-yl]methanamine], the Ki in assay [1] stood at 0.2 nM. Further, in assay [2], the EC50 worked out at 0.32 nM and the “5-HT2C Function Emax (%)” value was 100%.

For orientation: Emax means the maximal effect, on the per cent scale that the assay sets. Consider `CNCC1Cc2cc(OC)cc(-c3cc(Cl)ccc3Cl)c2O1` (racemic) [Example 499, (±)-{[7-(2,5-dichlorophenyl)-5-methoxy-2,3-dihydro-1-benzofuran-2-yl]methyl}methylamine], for which, in assay [1], the Ki was found to be 3.6 nM. In assay [2], the Emax is 90% and the EC50 amounted to 57 nM.

Take `NCC1Cc2cccc(-c3ccc(F)cc3F)c2O1` (single isomer, unassigned; (-)) [Example 148, (−)-1-[7-(2,4-difluorophenyl)-2,3-dihydro-1-benzofuran-2-yl]methanamine]: the Ki in assay [1] stood at 12 nM. Moreover, in assay [2], the EC50 is 290 nM and the “5-HT2C Function Emax (%)” value worked out at 70%.

For the molecule `NCC1Cc2cccc(-c3cc(Cl)ccc3Cl)c2O1` (racemic) [Example 163, (±)-{[7-(2,5-dichlorophenyl)-2,3-dihydro-1-benzofuran-2-yl]methyl}amine], the Ki in assay [1] is 0.23 nM. In assay [2], the Emax is 90% and the EC50 was determined as 2 nM.

On to `CNCC1Cc2cc(F)cc(-c3ccccc3C)c2O1` (single isomer, unassigned; (+)) [Example 442, (+)-{[5-fluoro-7-(2-methylphenyl)-2,3-dihydro-1-benzofuran-2-yl]methyl}methylamine], for which, in assay [1], the Ki stood at 0.2 nM. Besides, in assay [2], the EC50 worked out at 6 nM and the “5-HT2C Function Emax (%)” value is recorded as 90%.

As for `CNCC1Cc2cc(F)cc(-c3cc(Cl)ccc3OC)c2O1` (racemic) [Example 458, (±)-{[7-(5-chloro-2-methoxyphenyl)-5-fluoro-2,3-dihydro-1-benzofuran-2-yl]methyl}methylamine], the Ki in assay [1] amounted to 17 nM. Further, in assay [2], the Emax is 80% and the 50% effective concentration (EC50) worked out at 212 nM.

As to `CNCC1Cc2cc(OC)cc(-c3cccc(Cl)c3Cl)c2O1` (racemic) [Example 495, (±)-{[7-(2,3-dichlorophenyl)-5-methoxy-2,3-dihydro-1-benzofuran-2-yl]methyl}methylamine], the Ki in assay [1] is 41 nM. Moreover, in assay [2], the Emax came out at 60% and the EC50 was 338 nM.

On to `COc1ccccc1-c1cc(C)cc2c1OC(CN)C2` (racemic) [Example 284, (±)-{[7-(2-methoxyphenyl)-5-methyl-2,3-dihydro-1-benzofuran-2-yl]methyl}amine], for which, in assay [1], the Ki was found to be 0.8 nM. Besides, in assay [2], the Emax was found to be 100% and the EC50 is 7 nM.

Regarding `NCC1Cc2cccc(-c3ccsc3)c2O1` (single isomer, unassigned; (+)) [Example 45, (+)-1-(7-thien-3-yl-2,3-dihydro-1-benzofuran-2-yl)methanamine], the Ki in assay [1] turned out to be 2 nM. Also, in assay [2], the Emax was 90% and the EC50 is 5 nM.

Regarding `NCC1Cc2cccc(-c3cccc(F)c3)c2O1` (single isomer, unassigned; (+)) [Example 131, (+)-1-[7-(3-fluorophenyl)-2,3-dihydro-1-benzofuran-2-yl]methanamine], the Ki in assay [1] was determined as 1.5 nM. Moreover, in assay [2], the EC50 worked out at 34 nM and the “5-HT2C Function Emax (%)” value was determined as 90%.

As to `CNCC1Cc2cccc(-c3c(Cl)cccc3Cl)c2O1` (single isomer, unassigned; (-)) [Example 434, (−)-{[7-(2,6-dichlorophenyl)-2,3-dihydro-1-benzofuran-2-yl]methyl}methylamine], in assay [1], the Ki was 0.03 nM. In addition, in assay [2], the Emax was 90% and the EC50 worked out at 7 nM.

As for `NCC1Cc2cccc(-c3cccc(F)c3)c2O1` (racemic) [Example 64, (±)-1-[7-(3-fluorophenyl)-2,3-dihydro-1-benzofuran-2-yl]methanamine], the Ki in assay [1] stood at 13 nM. In assay [2], the Emax was found to be 100% and the EC50 worked out at 70 nM.

As to `COc1ccccc1-c1cc(F)cc2c1OC(CN)C2` (racemic) [Example 195, (±)-{[5-fluoro-7-(2-methoxyphenyl)-2,3-dihydro-1-benzofuran-2-yl]methyl}amine], in assay [1], the Ki was 0.48 nM. Besides, in assay [2], the Emax is 80% and the EC50 worked out at 9 nM.

Turning to `CNCC1Cc2cc(OC)cc(-c3ccc(F)cc3F)c2O1` (racemic) [Example 497, (±)-{[7-(2,4-difluorophenyl)-5-methoxy-2,3-dihydro-1-benzofuran-2-yl]methyl}methylamine], the Ki in assay [1] was 37 nM. In assay [2], the Emax is 70% and the EC50 was determined as 315 nM.

Take `Cc1ccccc1-c1cc(Cl)cc2c1OC(CN)C2` (racemic) [Example 95, (±)-1-[5-chloro-7-(2-methylphenyl)-2,3-dihydro-1-benzofuran-2-yl]methanamine]: in assay [1], the Ki turned out to be 1 nM. In assay [2], the Emax stood at 100% and the EC50 is 65 nM.

Consider `Cc1ccc(-c2cccc3c2OC(CN)C3)cc1` (single isomer, unassigned; (-)) [Example 72, (−)-1-[7-(4-methylphenyl)-2,3-dihydro-1-benzofuran-2-yl]methanamine], for which, in assay [1], the Ki was found to be 33 nM. Besides, in assay [2], the EC50 was determined as 511 nM and the “5-HT2C Function Emax (%)” value turned out to be 85%.

On to `Cc1cccc(C)c1-c1cc(Cl)cc2c1OC(CN)C2` (racemic) [Example 260, (±)-{[5-chloro-7-(2,6-dimethylphenyl)-2,3-dihydro-1-benzofuran-2-yl]methyl}amine], for which, in assay [1], the inhibition constant Ki is 0.13 nM. Moreover, in assay [2], the Emax came to 90% and the EC50 turned out to be 22 nM.

Consider `Cc1cccc(C)c1-c1cccc2c1OC(CN)C2` (single isomer, unassigned; (+)) [Example 58, (+)-1-[7-(2,6-dimethylphenyl)-2,3-dihydro-1-benzofuran-2-yl]methanamine], for which the Ki in assay [1] amounted to 9 nM. Besides, in assay [2], the EC50 was determined as 313 nM and the “5-HT2C Function Emax (%)” value came out at 60%.

Take `Cc1ccccc1-c1cc(F)cc2c1OC(CN)C2` (single isomer, unassigned; (-)) [Example 106, (−)-1-[5-fluoro-7-(2-methylphenyl)-2,3-dihydro-1-benzofuran-2-yl]methanamine]: the Ki in assay [1] amounted to 16 nM. In assay [2], the EC50 was found to be 91 nM and the “5-HT2C Function Emax (%)” value is reported as 50%.

`CNCC1Cc2cccc(-c3ccccc3Cl)c2O1` (single isomer, unassigned; (-)) [Example 411, (−)-N-methyl-1-[7-(2-chlorophenyl)-2,3-dihydro-1-benzofuran-2-yl]methanamine]: the Ki in assay [1] amounted to 2.6 nM. Besides, in assay [2], the EC50 worked out at 57 nM and the “5-HT2C Function Emax (%)” value is given as 80%.

For the molecule `CNCC1Cc2cc(C)cc(-c3ccccc3OC)c2O1` (racemic) [Example 477, (±)-{[7-(2-methoxyphenyl)-5-methyl-2,3-dihydro-1-benzofuran-2-yl]methyl}methylamine], the inhibition constant (Ki) in assay [1] was found to be 6.7 nM. Moreover, in assay [2], the Emax is 80% and the EC50 stood at 9 nM.

Take `Cc1cc2c(c(-c3ccccc3C)c1)OC(CN)C2` (racemic) [Example 282, (±)-{[7-(2-methylphenyl)-5-methyl-2,3-dihydro-1-benzofuran-2-yl]methyl}amine]: in assay [1], the Ki came to 1.7 nM. Also, in assay [2], the Emax came out at 90% and the EC50 was found to be 43 nM.

In the case of `NCC1Cc2cccc(-c3ccc(F)cc3)c2O1` (single isomer, unassigned; (+)) [Example 74, (+)-1-[7-(4-fluorophenyl)-2,3-dihydro-1-benzofuran-2-yl]methanamine], the Ki in assay [1] is 3 nM. Also, in assay [2], the Emax is 100% and the EC50 stood at 11 nM.

Consider `CNCC1Cc2cc(F)cc(-c3cccnc3)c2O1` (racemic) [Example 459, (±)-[(5-fluoro-7-pyridin-3-yl-2,3-dihydro-1-benzofuran-2-yl)methyl]methylamine], for which the Ki in assay [1] turned out to be 24 nM. In assay [2], the Emax was found to be 90% and the concentration for a half-maximal effect (EC50) was found to be 16 nM.

Consider `NCC1Cc2cc(F)cc(-c3ccccc3Cl)c2O1` (racemic) [Example 100, (±)-1-[7-(2-chlorophenyl)-5-fluoro-2,3-dihydro-1-benzofuran-2-yl]methanamine], for which the Ki in assay [1] was determined as 0.2 nM. Also, in assay [2], the Emax came to 100% and the EC50 amounted to 120 nM.

Regarding `Cc1cc2c(c(-c3ccccc3C(F)(F)F)c1)OC(CN)C2` (racemic) [Example 287, (±)-({5-methyl-7-[2-(trifluoromethyl)phenyl[-2,3-dihydro-7-benzofuran-2-yl}methyl)amine], the Ki in assay [1] worked out at 0.13 nM. Moreover, in assay [2], the Emax worked out at 90% and the EC50 is 21 nM.

Take `CNCC1Cc2cc(F)cc(-c3cc(Cl)ccc3Cl)c2O1` (racemic) [Example 449, (±)-{[7-(2,5-dichlorophenyl)-5-fluoro-2,3-dihydro-1-benzofuran-2-yl]methyl}methylamine]: the Ki in assay [1] worked out at 1 nM. Also, in assay [2], the Emax came out at 90% and the EC50 was found to be 2 nM.
